In patent publication US20190270778A1, “Cyclic Peptides As C5a Receptor Antagonists” (priority 2016, published 2019):
Like-named read-outs stand apart in the source and are kept apart here.

Columns and labels:
[1] = amide bond
[2] = the molecule shown is the open-chain precursor; amide bond; 18-membered ring
[3] = amide bond, 18-membered ring

Q: With `Cc1c(C)c(S(=O)(=O)NC(=N)NCCC[C@@H]2NC(=O)[C@H](Cc3c[nH]c4ccccc34)NC(=O)[C@@H](C[C@H]3CC[C@@H](O)CC3)NC(=O)[C@@H]3C[C@H](NC(=O)OC(C)(C)C)CN3C(=O)[C@@H](NC(=O)[C@H](Cc3ccccc3)N(CC(=O)OC(C)(C)C)C(=O)OC(C)(C)C)CCCNC2=O)c(C)c2c1OC(C)(C)C2` as the molecule, how does the ring closure, yield of all isomers ([1]; from Cc1c(C)c(S(=O)(=O)NC(=N)NCCC[C@H](NC(=O)[C@H](Cc2c[nH]c3ccccc23)NC(=O)[C@@H](C[C@H]2CC[C@@H](O)CC2)NC(=O)[C@@H]2C[C@H](NC(=O)OC(C)(C)C)CN2)C(=O)NCCC[C@H](NC(=O)[C@H](Cc2ccccc2)N(CC(=O)OC(C)(C)C)C(=O)OC(C)(C)C)C(=O)O)c(C)c2c1OC(C)(C)C2) read?
A: Its ring closure, yield of all isomers is 100%.

Q: With `Cc1c(C)c(S(=O)(=O)NC(=N)NCCC[C@@H]2NC(=O)[C@H](Cc3cn(C(=O)OC(C)(C)C)c4ccccc34)NC(=O)[C@@H](C[C@H]3CC[C@@H](O)CC3)NC(=O)[C@@H]3C[C@@H](OC(C)(C)C)CN3C(=O)[C@@H](NC(=O)OC(C)(C)C)CCCNC2=O)c(C)c2c1OC(C)(C)C2` as the molecule, how does the ring closure, yield of all isomers ([1]; from Cc1c(C)c(S(=O)(=O)NC(=N)NCCC[C@H](NC(=O)[C@H](Cc2cn(C(=O)OC(C)(C)C)c3ccccc23)NC(=O)[C@@H](C[C@H]2CC[C@@H](O)CC2)NC(=O)[C@@H]2C[C@@H](OC(C)(C)C)CN2)C(=O)NCCC[C@H](NC(=O)OC(C)(C)C)C(=O)O)c(C)c2c1OC(C)(C)C2, HATU, THF, 13.1 mM, 25.0 °C, 0.25 h) read?
A: The ring closure, yield of all isomers was 95.3%.

Q: Which ring closure, yield of all isomers ([1]; from Cc1c(C)c(S(=O)(=O)NC(=N)NCCC[C@H](NC(=O)[C@H](Cc2cn(C(=O)OC(C)(C)C)c3ccccc23)NC(=O)[C@@H](C[C@H]2CC[C@@H](O)CC2)NC(=O)[C@@H]2C[C@@H](OCC(=O)OC(C)(C)C)CN2)C(=O)NCCC[C@H](NC(=O)[C@H](Cc2ccccc2)N(CC(=O)OC(C)(C)C)C(=O)OC(C)(C)C)C(=O)O)c(C)c2c1OC(C)(C)C2) does the source give for `Cc1c(C)c(S(=O)(=O)NC(=N)NCCC[C@@H]2NC(=O)[C@H](Cc3cn(C(=O)OC(C)(C)C)c4ccccc34)NC(=O)[C@@H](C[C@H]3CC[C@@H](O)CC3)NC(=O)[C@@H]3C[C@@H](OCC(=O)OC(C)(C)C)CN3C(=O)[C@@H](NC(=O)[C@H](Cc3ccccc3)N(CC(=O)OC(C)(C)C)C(=O)OC(C)(C)C)CCCNC2=O)c(C)c2c1OC(C)(C)C2` here?
A: The ring closure, yield of all isomers was 83%.

Q: With “H-Hyp(tBu)-dAla(cis-4-hydroxycyclohexyl)-Trp(Boc,6-Et)-Arg(Pbf)-(Nδ)Orn(Nα-[Boc-N(CH2CO2tBu)-Phe])-OH” as the molecule, how does the ring closure, isolated yield [2] read?
A: The ring closure, isolated yield was 42%.

Q: With `Cc1c(C)c(S(=O)(=O)NC(=N)NCCC[C@@H]2NC(=O)[C@H](Cc3cn(C(=O)OC(C)(C)C)c4ncccc34)NC(=O)[C@@H](C[C@H]3CC[C@@H](O)CC3)NC(=O)[C@@H]3C[C@@H](OC(C)(C)C)CN3C(=O)[C@@H](NC(=O)[C@H](Cc3ccccc3)N(CC(=O)OC(C)(C)C)C(=O)OC(C)(C)C)CCCNC2=O)c(C)c2c1OC(C)(C)C2` as the molecule, how does the ring closure, yield of all isomers ([1]; from Cc1c(C)c(S(=O)(=O)NC(=N)NCCC[C@H](NC(=O)[C@H](Cc2cn(C(=O)OC(C)(C)C)c3ncccc23)NC(=O)[C@@H](C[C@H]2CC[C@@H](O)CC2)NC(=O)[C@@H]2C[C@@H](OC(C)(C)C)CN2)C(=O)NCCC[C@H](NC(=O)[C@H](Cc2ccccc2)N(CC(=O)OC(C)(C)C)C(=O)OC(C)(C)C)C(=O)O)c(C)c2c1OC(C)(C)C2) read?
A: The ring closure, yield of all isomers was 93.4%.

Q: Which ring closure, yield after HPLC ([3]; with chain assembly) does the source give for “((31R,6S,9S,15S,19R,20aS)-6-((1H-indol-3-yl)methyl)-15-((S)-2-((carboxymethyl)amino)-3-phenylpropanamido)-9-(3-guanidinopropyl)-3-(((1s,4S)-4-hydroxycyclohexyl)methyl)-1,4,7,10,16-pentaoxoicosahydropyrrolo[1,2-a][1,4,7,10,13]pentaazacyclooctadecin-19-yl)glycine” here?
A: Its ring closure, yield after HPLC is 19.4%.

Q: With `CCc1ccc2c(C[C@@H]3NC(=O)[C@@H](C[C@H]4CC[C@@H](O)CC4)NC(=O)[C@@H]4C[C@@H](OC(C)(C)C)CN4C(=O)[C@@H](NC(=O)[C@H](Cc4ccccc4)N(CC(=O)OC(C)(C)C)C(=O)OC(C)(C)C)CCCNC(=O)[C@H](CCCNC(=N)NS(=O)(=O)c4c(C)c(C)c5c(c4C)CC(C)(C)O5)NC3=O)cn(C(=O)OC(C)(C)C)c2c1` as the molecule, how does the ring closure, yield of all isomers ([1]; from CCc1ccc2c(C[C@H](NC(=O)[C@@H](C[C@H]3CC[C@@H](O)CC3)NC(=O)[C@@H]3C[C@@H](OC(C)(C)C)CN3)C(=O)N[C@@H](CCCNC(=N)NS(=O)(=O)c3c(C)c(C)c4c(c3C)CC(C)(C)O4)C(=O)NCCC[C@H](NC(=O)[C@H](Cc3ccccc3)N(CC(=O)OC(C)(C)C)C(=O)OC(C)(C)C)C(=O)O)cn(C(=O)OC(C)(C)C)c2c1) read?
A: Its ring closure, yield of all isomers is 42%.

Q: Which ring closure, yield after HPLC ([3]; 2 steps) does the source give for “((S)-1-(((3R,6S,9S,15S,19S,20aS)-6-((1H-indol-3-yl)methyl)-19-acetamido-9-(3-guanidinopropyl)-3-(((1s,4S)-4-hydroxycyclohexyl)methyl)-1,4,7,10,16-pentaoxoicosahydropyrrolo[1,2-a][1,4,7,10,13]pentaazacyclooctadecin-15-yl)amino)-1-oxo-3-phenylpropan-2-yl)glycine” here?
A: Its ring closure, yield after HPLC is 30%.

Q: With `Cc1c(C)c(S(=O)(=O)NC(=N)NCCC[C@@H]2NC(=O)[C@H](Cc3cn(C(=O)OC(C)(C)C)c4ccccc34)NC(=O)[C@@H](C[C@H]3CC[C@@H](O)CC3)NC(=O)[C@@H]3C[C@@H](OC(C)(C)C)CN3C(=O)[C@@H](NC(=O)[C@H](Cc3ccccc3)N(CC(=O)OC(C)(C)C)C(=O)OC(C)(C)C)CCCNC2=O)c(C)c2c1OC(C)(C)C2` as the molecule, how does the ring closure, yield of all isomers ([1]; from Cc1c(C)c(S(=O)(=O)NC(=N)NCCC[C@H](NC(=O)[C@H](Cc2cn(C(=O)OC(C)(C)C)c3ccccc23)NC(=O)[C@@H](C[C@H]2CC[C@@H](O)CC2)NC(=O)[C@@H]2C[C@@H](OC(C)(C)C)CN2)C(=O)NCCC[C@H](NC(=O)[C@H](Cc2ccccc2)N(CC(=O)OC(C)(C)C)C(=O)OC(C)(C)C)C(=O)O)c(C)c2c1OC(C)(C)C2, HATU, THF, 14.1 mM, 25.0 °C, 0.5 h) read?
A: Its ring closure, yield of all isomers is 87%.
